Results reported in patent US20030211076A1, “Compositions and methods for treatment of proliferative disorders” (priority 2003, published 2003).

Biological target: T1, lysyl oxidase (LO) (Bos taurus, UniProt P33072)
T1 construct: per mature LO molecule (32 kD); from tissue
T1 sequence (P33072 170-418): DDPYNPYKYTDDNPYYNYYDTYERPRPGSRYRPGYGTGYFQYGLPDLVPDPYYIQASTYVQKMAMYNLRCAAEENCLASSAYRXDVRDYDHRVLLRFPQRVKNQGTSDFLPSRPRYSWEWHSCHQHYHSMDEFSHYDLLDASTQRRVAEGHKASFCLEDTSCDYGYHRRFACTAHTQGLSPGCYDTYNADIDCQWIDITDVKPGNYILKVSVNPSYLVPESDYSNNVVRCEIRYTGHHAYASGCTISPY
Assay: LO-dependent H2O2 release, horseradish peroxidase-coupled fluorescence assay (substrate potential for LO)
Type: biochemical
Conditions: 55° C. and 37° C.
Protocol: The oxidation of a primary amine substrate by LO yields stoichiometric amounts of the corresponding aldehyde, hydrogen peroxide and ammonia, as shown: RCH2NH2+O2+H2O→RCHO+H2O2+NH3 (Kagan, 1986). To assess the substrate potential of FGF2, LO-dependent H2O2 release was monitored in assays using FGF2 as the sole substrate, using both the optimum temperature for LO activity of 55° C. and the physiological temperature of 37° C. (Trackman et al., 1981).
LO reaction with FGF2 as a substrate was assessed by a horseradish peroxidase-coupled fluorescence assay for H2O2 production. Reaction mixtures contained 0.25 mg of sodium homovanillate(HVA), 40 μg of HRP, and FGF2 at doses as indicated below in 0.05 M sodium borate buffer, pH 8.2, in a final volume of 2 ml. Assays were initiated by the addition of LO to reaction mixtures. H2O2 release was continuously monitored at excitation and emission wavelengths of 315 and 425 nm, respectively, at a constant temperature of 55° C. or 37° C., as specified, in the thermostatted cuvette chamber of an SLM Aminco Bowman Series 2 Luminescence Spectrometer. All activity data were corrected for background rates of H2O2 release determined in complete assay mixtures supplemented with 200 μM BAPN, an irreversible inhibitor of LO. In FIG. 4, solid curves represent the time course of H2O2 release at 55° C. in the reaction of 0.16 μM LO with 0.23 (a), 0.45 (b) and 0.9 (c) μM FGF2, respectively. Dotted curve (d) represents the time course of H2O2 release in the reaction of 0.16 μM LO with 0.9 μM FGF2 at 37° C. The same data were obtained from three separate experiments.
Using the fluorometric assay (Trackman et al., 1981) to monitor LO-dependent H2O2 release in vitro, the substrate potential of other growth factors was also assessed. Major members of the FGF family tested included FGF 1, 4, 5, 6, 7 and EGF (note: All factors are human recombinant forms purchased from R & D Systems, Inc., Minneapolis, Minn.).
A human recombinant disulfide-linked dimer of VEGF165 (MW: 42 kDa)(R & D Systems) as a sole substrate was tested by using the standard in vitro LO catalysis assays as described above for FIG. 4 (Trackman et al., 1981). Curves represent the time course of H2O2 release at 55° C. (a) or 37° C. (b) in the reaction of 0.10 μM LO with 0.45 μM VEGF165. All activity data were corrected for background rates of H2O2 release determined in complete assay mixtures supplemented with the same amounts of LO preincubated with 100 μM BAPN for 15 min at 37° C. The same data were obtained from three separate experiments.
The standard in vitro LO catalysis assays as described above for FIG. 4 (Trackman et al., 1981) using human recombinant PDGF-AB (R & D Systems) as a sole substrate was tested. […] In FIG. 19, curves represent the time course of H2O2 release at 55° C. (a) and 37° C. (b) in the reaction of 0.11 μM LO with 0.46 μM PDGF-AB, respectively. All activity data were corrected for background rates of H2O2 release determined in complete assay mixtures supplemented with the same amounts of LO preincubated with 100 μM BAPN for 15 minutes at 37° C. The same data were obtained from three separate experiments.
To analyze the substrate potential of Tat, the standard in vitro LO catalysis assays as described in FIG. 4 (Trackman et al., 1981) was performed at the optimum temperature of 55° C. and at the physiological temperature of 37° C. A recombinant Tat with 9 lysines in a total of 86 amino acids was used as a sole substrate. FIG. 12A represents a dose and temperature-dependent response. Curves represent the time course of H2O2 release at 55° C. (solid) or 37° C. (dotted) in the reaction of 0.10 μM LO with 0.22 (a and d), 0.43 (b and e) and 0.85 (c and f) μM Tat, respectively. All activity data were corrected for background rates of H2O2 release determined in complete assay mixtures supplemented with the same amounts of LO preincubated with 100 μM BAPN for 15 min at 37° C. […]

N#CCCN [BAPN, β-Aminopropionitrile, reference compound] was tested, and the “effect on H2O2 release when added after the reaction of LO with Tat was initiated” value (100 μM BAPN added at 200 seconds) was “failed to block H2O2 release” and the “inhibition of the reaction of LO with Tat” value (LO preincubated with 100 μM BAPN for 5 minutes) was “totally inhibited”.
